Laboratory results as given in US20250185948A1, “WEARABLE APTAMER MICRONEEDLE PATCH FOR CONTINUOUS MINIMALLY-INVASIVE BIOMONITORING” (THE REGENTS OF THE UNIVERSITY OF CALIFORNIA, priority 2022, published 2025).

Key:
[1] = AMPatch in-vivo tobramycin PK monitoring in a rat model (ISF sensor readout and blood LC-MS/MS); set-up: species or system Sprague-Dawley rats; settings: intravenous tobramycin 20 mg/kg, different animals
From the text: More particularly, the developed AMPatch was applied to monitor the PK profile of tobramycin in dermal ISF using a rat model and investigate the drug's ISF-blood correlation. Accordingly, used were three healthy adult Sprague-Dawley rats and the animals were anesthetized during the test (FIG. 4A). An AMPatch was placed at the back of the animal to render continuous ISF monitoring upon intravenous tobramycin injection. […] To investigate the drug's ISF-blood correlation, blood samples were simultaneously collected before and at intermittent time points after drug injection, followed by standard lab analysis (liquid chromatography with tandem mass spectrometry, LC-MS/MS). The acquired PK readouts were interpreted using a two compartment-based pharmacokinetic model, which captures the drug's distribution (e.g., from blood to ISF) and elimination processes (FIG. 4B). The blood-ISF correlation was evaluated by comparing the drug's circulating AUC (AUC_blood) versus the AUC and the maximum concentrations of ISF drug, where the ISF concentrations can be equivalently presented by the measured sensor response (denoting AUC_ISF and R_max, respectively).
An AMPatch according to embodiments was first deployed in a manner to assess its capability of tracking the ISF PK profile in-vivo. […]

[2] = tobramycin treatments; cited from earlier work

AUC ([1]; Sprague-Dawley, blood LC-MS/MS, read-out: AUC_blood): 176 µM·h
AUC_ISF ([1]; dermal ISF, AMPatch sensor response): 7.7±5.2 %·h
SMILES: NC[C@H]1O[C@H](O[C@H]2[C@H](O)[C@@H](O[C@H]3O[C@H](CO)[C@@H](O)[C@H](N)[C@H]3O)[C@H](N)C[C@@H]2N)[C@H](N)C[C@@H]1O [tobramycin]
rate of nephrotoxicity incidence [2]: 12%
